Measured values: ChEMBL document CHEMBL4038324, “Amidoalkylindoles as Potent and Selective Cannabinoid Type 2 Receptor Agonists with in Vivo Efficacy in a Mouse Model of Multiple Sclerosis” (J Med Chem, 2017)

Tests used:
Cannabinoid receptor 1 [1] = target: T1, Cannabinoid receptor 1 (Homo sapiens, UniProt P21554); test: Agonist activity at human CB1 receptor expressed in CHO cells assessed as induction of Ca2+ flux at 10 uM after 10 mins by Fluor-4 AM dye based assay; assay type: cell-based
Cannabinoid receptor 2 [2] = target: T2, Cannabinoid receptor 2 (Homo sapiens, UniProt P34972); test: Agonist activity at human CB2 receptor expressed in CHO cells assessed as induction of Ca2+ flux after 10 mins by Fluor-4 AM dye based assay relative to CP55940; assay type: functional, cell-based
T2 sequence (P34972 whole entry): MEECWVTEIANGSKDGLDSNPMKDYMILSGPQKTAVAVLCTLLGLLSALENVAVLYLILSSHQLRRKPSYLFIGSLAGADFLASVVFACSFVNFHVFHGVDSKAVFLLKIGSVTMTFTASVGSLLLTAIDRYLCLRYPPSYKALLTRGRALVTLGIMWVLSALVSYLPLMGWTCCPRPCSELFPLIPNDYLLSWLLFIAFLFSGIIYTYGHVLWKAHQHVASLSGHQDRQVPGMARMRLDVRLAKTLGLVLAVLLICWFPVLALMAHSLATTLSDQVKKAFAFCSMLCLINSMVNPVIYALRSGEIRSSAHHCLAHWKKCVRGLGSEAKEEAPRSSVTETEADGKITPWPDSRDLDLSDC

Cannabinoid receptor 2 [3] = target: T2, Cannabinoid receptor 2; test: Agonist activity at human CB2 receptor expressed in CHO cells assessed as induction of Ca2+ flux after 10 mins by Fluor-4 AM dye based assay; assay type: functional, cell-based
[4] = target: T3, Cannabinoid receptor 1 (CB1) (Homo sapiens, UniProt P21554); test: Antagonist activity at human CB1 receptor expressed in CHO cells assessed as inhibition of CP55940-induced Ca2+ flux at 10 uM preincubated for 10 mins followed by agonist addition by Fluor-4 AM dye based assay; assay type: cell-based; conditions: CHO cells expressing human CB1 receptor
T3 sequence (P21554 whole entry): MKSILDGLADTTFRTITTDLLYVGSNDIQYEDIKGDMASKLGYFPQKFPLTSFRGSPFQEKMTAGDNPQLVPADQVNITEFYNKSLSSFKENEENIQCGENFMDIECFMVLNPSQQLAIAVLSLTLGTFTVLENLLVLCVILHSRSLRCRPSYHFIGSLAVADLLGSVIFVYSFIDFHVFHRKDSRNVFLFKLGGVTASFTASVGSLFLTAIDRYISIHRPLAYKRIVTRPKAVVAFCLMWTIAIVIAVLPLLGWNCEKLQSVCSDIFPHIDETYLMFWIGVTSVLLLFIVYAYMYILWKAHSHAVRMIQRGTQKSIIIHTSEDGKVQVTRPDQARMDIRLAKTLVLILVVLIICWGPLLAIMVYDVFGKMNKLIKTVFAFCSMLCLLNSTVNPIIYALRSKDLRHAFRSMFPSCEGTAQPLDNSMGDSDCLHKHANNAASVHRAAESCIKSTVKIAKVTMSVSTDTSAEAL

Cannabinoid receptor 2 [5] = target: T2, Cannabinoid receptor 2; test: Antagonist activity at human CB2 receptor expressed in CHO cells assessed as inhibition of CP55940-induced Ca2+ flux at 10 uM preincubated for 10 mins followed by agonist addition by Fluor-4 AM dye based assay; assay type: functional, cell-based
[6] = target: T3, Cannabinoid receptor 1 (CB1); test: Agonist activity at human CB1 receptor expressed in CHO cells assessed as induction of Ca2+ flux after 10 mins by Fluor-4 AM dye based assay relative to CP55940; assay type: cell-based; conditions: CHO cells expressing human CB1 receptor
Cannabinoid receptor 1 [7] = target: T1, Cannabinoid receptor 1; test: Agonist activity at human CB1 receptor expressed in CHO cells assessed as induction of Ca2+ flux after 10 mins by Fluor-4 AM dye based assay; assay type: cell-based
Cannabinoid receptor 2 [8] = target: T2, Cannabinoid receptor 2; test: Agonist activity at human CB2 receptor expressed in CHO cells assessed as induction of Ca2+ flux at 10 uM after 10 mins by Fluor-4 AM dye based assay; assay type: functional, cell-based

T1 sequence (P21554 whole entry): as above

Compound	Activity (Cannabinoid receptor 1 [1]) [%]	Emax (Cannabinoid receptor 2 [2]) [%]	EC50 (Cannabinoid receptor 2 [3]) [nM]	inhibition at 10 min, 10 µM [4] [%]	inhibition (Cannabinoid receptor 2 [5]) [%]	Emax at 10 min [6] [%]	EC50 (Cannabinoid receptor 1 [7]) [nM]	Activity (Cannabinoid receptor 2 [8]) [%]
CC(C)(C)NC(=O)c1cc2ccccc2n1CCCCCO	< 50	51.7	430	< 50	< 50	–	–	–
COCCCCCn1cc(C(=O)NC23CC4CC(CC(C4)C2)C3)c2ccccc21	< 50	70	82	< 50	< 50	–	–	–
O=C(NC12CC3CC(CC(C3)C1)C2)c1cn(CCCCCO)c2ccccc12	–	63.3	62	< 50	< 50	76.7	4100	–
N#CCCCCn1c(C(=O)Nc2ccccc2)cc2ccccc21	< 50	48.3	200	< 50	< 50	–	–	–
N#CCCCn1c(C(=O)NC23CC4CC(CC(C4)C2)C3)cc2ccccc21	< 50	61.7	270	< 50	< 50	–	–	–
NCCCCCn1c(C(=O)NC23CC4CC(CC(C4)C2)C3)cc2ccccc21	< 50	93.3	8600	< 50	< 50	–	–	–
O=C(NC12CC3CC(CC(C3)C1)C2)c1cc2ccccc2n1CCCCC(F)F	< 50	60	92	< 50	< 50	–	–	–
O=C(NC12CC3CC(CC(C3)C1)C2)c1cc2ccccc2n1CCCC(F)(F)F	< 50	63.3	490	< 50	< 50	–	–	–
O=C(O)CCCCn1c(C(=O)NC23CC4CC(CC(C4)C2)C3)cc2ccccc21	< 50	43.3	7130	< 50	< 50	–	–	–
C[S+]([O-])c1cccc2c(C(=O)NC34CC5CC(CC(C5)C3)C4)cn(CCN3CCOCC3)c12 (configuration not stated)	< 50	–	–	< 50	< 50	–	–	< 50
O=C(NC12CC3CC(CC(C3)C1)C2)c1cc2ccccc2[nH]1	< 50	66.7	980	< 50	< 50	–	–	–
N=C(N)NCCCCCn1c(C(=O)NC23CC4CC(CC(C4)C2)C3)cc2ccccc21	< 50	–	–	< 50	< 50	–	–	< 50
O=C(NC12CC3CC(CC(C3)C1)C2)c1cc2ccccc2n1CCCCCO	< 50	70	100	< 50	< 50	–	–	–
O=CCCCCn1c(C(=O)NC23CC4CC(CC(C4)C2)C3)cc2ccccc21	< 50	73.3	180	< 50	< 50	–	–	–
O=C(NC12CC3CC(CC(C3)C1)C2)c1cc2ccccc2n1CCN1CCOC1=O	< 50	66.7	220	< 50	< 50	–	–	–
Cc1cccc2c(C(=O)NC34CC5CC(CC(C5)C3)C4)c[nH]c12	< 50	60	500	< 50	< 50	–	–	–
N#CCCn1cc(C(=O)NC23CC4CC(CC(C4)C2)C3)c2ccccc21	< 50	73.3	180	< 50	< 50	–	–	–

Compound	Activity (Cannabinoid receptor 1 [1]) [%]	Emax (Cannabinoid receptor 2 [2]) [%]	EC50 (Cannabinoid receptor 2 [3]) [nM]	inhibition at 10 min, 10 µM [4] [%]	inhibition (Cannabinoid receptor 2 [5]) [%]	Emax at 10 min [6] [%]	EC50 (Cannabinoid receptor 1 [7]) [nM]	Activity (Cannabinoid receptor 2 [8]) [%]
O=C(NC12CC3CC(CC(C3)C1)C2)c1c(F)c2ccccc2n1CCCCO	< 50	46.7	410	< 50	< 50	–	–	–
O=C(NC12CC3CC(CC(C3)C1)C2)c1cn(CC2CCOCC2)c2ccccc12	–	76.7	38	< 50	< 50	133	84	–
N#CCn1cc(C(=O)NC23CC4CC(CC(C4)C2)C3)c2ccccc21	< 50	66.3	410	< 50	< 50	–	–	–
CCCCCn1c(C(=O)NC23CC4CC(CC(C4)C2)C3)cc2ccccc21	< 50	53.3	720	< 50	< 50	–	–	–
COc1ccc2c(c1)c(C(=O)NC13CC4CC(CC(C4)C1)C3)cn2CCN1CCOCC1	< 50	–	–	< 50	< 50	–	–	< 50
O=C(NC12CC3CC(CC(C3)C1)C2)c1cc2ccccc2n1CCCCCF	< 50	53.3	140	< 50	< 50	–	–	–
O=C(NC1CCCC1)c1cc2ccccc2n1CCCCCO	< 50	–	–	< 50	< 50	–	–	< 50
O=C(NC12CC3CC(CC(C3)C1)C2)c1[nH]c2ccccc2c1F	< 50	83.3	3800	< 50	< 50	–	–	–
N#CCCCCn1c(C(=O)NC23CC4CC(CC(C4)C2)C3)cc2ccccc21	< 50	41.7	75	< 50	< 50	–	–	–
O=C(NC12CC3CC(CC(C3)C1)C2)c1cc2ccccc2n1CC1CCOCC1	< 50	41.7	410	< 50	< 50	–	–	–
N#CCCn1c(C(=O)NC23CC4CC(CC(C4)C2)C3)cc2ccccc21	< 50	93.3	150	< 50	< 50	–	–	–
O=C(NC12CC3CC(CC(C3)C1)C2)c1c(F)c2ccccc2n1CCCCCO	< 50	60	610	< 50	< 50	–	–	–
NCCCCn1c(C(=O)NC23CC4CC(CC(C4)C2)C3)cc2ccccc21	< 50	86.7	4700	< 50	< 50	–	–	–
O=C(NC1CCCCC1)c1cc2ccccc2n1CCCCCO	< 50	50	420	< 50	< 50	–	–	–
O=C(NC12CC3CC(CC(C3)C1)C2)c1c[nH]c2ccccc12	< 50	75	630	< 50	< 50	–	–	–
O=C(NC12CC3CC(CC(C3)C1)C2)c1cc2ccccc2n1CCCO	< 50	86.7	160	< 50	< 50	–	–	–
COc1cccc2c1c(C(=O)NC13CC4CC(CC(C4)C1)C3)cn2CCN1CCOCC1	< 50	–	–	< 50	< 50	–	–	< 50
